This passage reports GI50 and TGI results from PubChem BioAssay (NCI).

Test systems include HT29 colon; RXF 393 renal; U251 CNS; DU-145 prostate; IGROV1 ovarian; SK-MEL-2 melanoma; SK-MEL-5 melanoma; A498 renal; SN12C renal; SNB-19 CNS.
Assay in all cases: growth of human tumour cells (NCI), 48 h

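48-hour exposure; five concentrations; linearly interpolated endpoints. GI50 marks 50% less growth. TGI: total growth inhibition.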 Where only a bound is given, the exact number is not on record here.

On to `NC(=S)N/N=C/c1ccc(OC(=O)COc2ccc(Cl)cc2)cn1`, for which the GI50 was 7.19 µM in the assay on HT29 colon; 5.48 µM in the assay on RXF 393 renal; 4.24 µM with U251 CNS; 2.46 µM in the assay with DU-145 prostate; 16.4 µM in the assay with IGROV1 ovarian; 9.69 µM in the assay with SK-MEL-2 melanoma. Also, the GI50 was 3.24 µM with SK-MEL-5 melanoma, 11.9 µM in the assay with A498 renal, 4.53 µM in the assay with SN12C renal and 20.9 µM in the assay on SNB-19 CNS. Also, the TGI with HT29 colon was over 100 µM; with RXF 393 renal, over 100 µM; in the assay on U251 CNS, over 100 µM; in the assay with DU-145 prostate it was 8.65 µM; in the assay on IGROV1 ovarian, over 100 µM; with SK-MEL-2 melanoma, over 100 µM. The TGI in the assay on SK-MEL-5 melanoma is 23.6 µM; with A498 renal, 71 µM; with SN12C renal, over 100 µM; in the assay with SNB-19 CNS, over 100 µM.

`CCS(=O)(=O)c1ccc(OC)c(Nc2ncc(-c3cccc(OC)c3)o2)c1`: the GI50 was 10.8 µM in the assay on HT29 colon; 5.83 µM in the assay on RXF 393 renal; 8.09 µM in the assay with U251 CNS; 9.99 µM with DU-145 prostate; 6.8 µM in the assay on IGROV1 ovarian; 13.2 µM in the assay on SK-MEL-2 melanoma. Moreover, the GI50 in the assay on SK-MEL-5 melanoma is 10 µM; in the assay with A498 renal, 0.728 µM; in the assay on SN12C renal, 8.3 µM; in the assay with SNB-19 CNS, 12 µM. For the same compound, the TGI was over 25 µM with HT29 colon; 19.7 µM in the assay on RXF 393 renal; over 25 µM with U251 CNS; over 25 µM in the assay on DU-145 prostate; over 20.7 µM with IGROV1 ovarian; over 25 µM in the assay on SK-MEL-2 melanoma. Further, the TGI was over 25 µM with SK-MEL-5 melanoma, 4.28 µM with A498 renal, over 25 µM in the assay with SN12C renal and over 25 µM with SNB-19 CNS.

As to `Fc1cc(F)c(COc2cc(Cn3cnc4c(Cl)nc(Cl)nc43)ccc2C23CC4CC(CC(C4)C2)C3)cc1F`, the GI50 with HT29 colon was 23.6 µM; with RXF 393 renal it was 15.3 µM; in the assay on U251 CNS it was 16.8 µM; with DU-145 prostate, 17.1 µM; with IGROV1 ovarian it was 13.2 µM; with SK-MEL-2 melanoma, 21 µM. For the same compound, the GI50 in the assay with SK-MEL-5 melanoma was 1.68 µM; in the assay on A498 renal, 99.2 µM; in the assay on SN12C renal, 11 µM; in the assay on SNB-19 CNS, 17.5 µM. In addition, the TGI was found to be 62.5 µM with HT29 colon; 29.7 µM with RXF 393 renal; 30.4 µM in the assay with U251 CNS; 30.8 µM in the assay on DU-145 prostate; 27.5 µM in the assay on IGROV1 ovarian; 56.1 µM with SK-MEL-2 melanoma. Also, the TGI in the assay with SK-MEL-5 melanoma was 3.53 µM; in the assay on A498 renal it was over 100 µM; in the assay on SN12C renal, 24.9 µM; with SNB-19 CNS it was 31.7 µM.

`CCC#CC[C@H]1C/C=C2/C(=O)C=C[C@@H]2C/C=C\CCCC(=O)O1`: the GI50 in the assay with HT29 colon was 0.894 µM; in the assay with RXF 393 renal, 0.945 µM; with U251 CNS, 0.706 µM; with DU-145 prostate, 1.37 µM; in the assay with IGROV1 ovarian, 1.47 µM; with SK-MEL-2 melanoma, 1.17 µM. Further, the GI50 in the assay with SK-MEL-5 melanoma is 0.854 µM; in the assay on A498 renal it was 1.08 µM; in the assay with SN12C renal it was 0.954 µM; in the assay with SNB-19 CNS, 1.48 µM. In addition, the TGI with HT29 colon was found to be 2.39 µM; in the assay on RXF 393 renal, 1.96 µM; in the assay with U251 CNS, 2.24 µM; in the assay with DU-145 prostate, 6.24 µM; with IGROV1 ovarian it was 4.33 µM; with SK-MEL-2 melanoma it was 3.52 µM. Further, the TGI with SK-MEL-5 melanoma amounted to 1.71 µM; in the assay on A498 renal, 2.49 µM; with SN12C renal it was 2.78 µM; with SNB-19 CNS, 7.02 µM.

As to `COc1ccc(C(=O)c2cc(C)c(OC)c(C)c2)c(OC)c1N(C(=O)C(Cl)Cl)C(=O)C(Cl)Cl`, the GI50 was 0.323 µM with HT29 colon; 0.0553 µM with U251 CNS; 0.0392 µM in the assay with DU-145 prostate; 0.101 µM with IGROV1 ovarian; 0.0669 µM with SK-MEL-2 melanoma; 0.0509 µM with SK-MEL-5 melanoma. For the same compound, the figures for the GI50 in the assay with A498 renal, in the assay on SN12C renal and in the assay on SNB-19 CNS were under 0.0156 µM, 0.0727 µM and 0.0492 µM, respectively. Further, the TGI with HT29 colon was over 40.6 µM; in the assay on U251 CNS, over 100 µM; in the assay with DU-145 prostate, over 100 µM; in the assay with IGROV1 ovarian it was over 100 µM; in the assay with SK-MEL-2 melanoma, over 100 µM; in the assay on SK-MEL-5 melanoma, 2.14 µM. For the same compound, the TGI with A498 renal is 0.0736 µM; in the assay with SN12C renal, over 100 µM; with SNB-19 CNS, over 100 µM.

Turning to `O=C(O)CC1OCC=C2CN3CCC45c6ccccc6NC4C1C2CC35` (stereo not drawn), the TGI in the assay with HT29 colon, with RXF 393 renal, with U251 CNS, in the assay with DU-145 prostate, in the assay on IGROV1 ovarian and with SK-MEL-5 melanoma was over 100 µM each time. Besides, the TGI with A498 renal, in the assay with SN12C renal and in the assay with SNB-19 CNS was over 100 µM each time.

Take `NC(CC(=O)OCc1ccccc1)C(=O)OCc1ccccc1` (stereo not drawn): the TGI in the assay on DU-145 prostate, with IGROV1 ovarian, with SK-MEL-2 melanoma, in the assay on SK-MEL-5 melanoma, in the assay with SN12C renal and with SNB-19 CNS was over 100 µM throughout.

On to `CC12CCCC(O)C1CCC1=CC3(CCC12)SCCS3` (stereo not drawn), for which the TGI in the assay with HT29 colon, in the assay on U251 CNS, in the assay with DU-145 prostate, in the assay with IGROV1 ovarian, with SK-MEL-5 melanoma and with SN12C renal was over 10 µM in each case. This compound also returned a TGI with SNB-19 CNS of over 10 µM.

With `O=C(c1cccc(O)c1O)c1cn(Cc2ccc(F)cc2)c2cccc(O)c12`, the GI50 in the assay on HT29 colon was 7.43 µM; in the assay with U251 CNS, 2.95 µM; with DU-145 prostate it was 5.1 µM; with IGROV1 ovarian it was 0.833 µM; in the assay on SK-MEL-2 melanoma it was 7.93 µM; in the assay on SK-MEL-5 melanoma, 1.73 µM. The results for the GI50 in the assay with A498 renal, in the assay with SN12C renal and in the assay with SNB-19 CNS were 12.9 µM, 6.37 µM and 3.97 µM, respectively. Moreover, the TGI in the assay on HT29 colon turned out to be 23.4 µM; in the assay on U251 CNS, 15.2 µM; with DU-145 prostate, 17.3 µM; with IGROV1 ovarian, 7.85 µM; in the assay on SK-MEL-2 melanoma it was 23.2 µM; in the assay on SK-MEL-5 melanoma, 4.97 µM. Further, the TGI in the assay with A498 renal was determined as 25.6 µM; in the assay with SN12C renal, 21.7 µM; in the assay on SNB-19 CNS it was 17 µM.
